Data taken from US4017639A, “2-Hydroxy-3-nitro-1,4-naphthoquinones for the prophylaxis of certain allergies” (Beecham Group Limited, priority 1974, dated 1977).

Tested on: PCA response
Experiment: rat Passive Cutaneous Anaphylaxis Test (PCA test)
Assay type: in vivo, rat (male Wistar)
Conditions: sc, subcutaneous, as sodium salt
Procedure: All of the compounds of the formula (I) prepared in the preceding examples were tested in the rat Passive Cutaneous Anaphylaxis Test (PCA test) described below. They were administered as their sodium salts either in pH 7.2 phosphate buffer (for soluble salts) or as a suspension in 1% methyl cellulose (for insoluble salts).
Male Wistar rats of 250-300 g were injected intraperitoneally with 0.5 ml. of Bordatella pertussis vaccine (containing 4 × 10^10 dead organism per ml) and subcutaneously with 0.5 ml. of an emulsion of 100 mg of ovalbumin in 2 ml. of saline and 3 ml. of incomplete Freunds' adjuvant. Rats were bled by cardiac puncture on day 18, the blood was pooled and separated and serum stored at -20° and thawed only once before use.
0.1 ml. of each of six twofold serial dilutions of the serum in 0.9% saline were injected intradermally into separate sites on the shaved dorsal surface of 250-350 g. Male Wister rats. 72 hours later the animals were challenged by i.v. injection of 0.3 ml. of 1% ovalbumin mixed with 0.1 ml. of a 5% solution of pontamine sky blue dye both in isotonic saline buffered with pH 7.2 Sorenson buffer (P.B.S.). The rats were killed after 20 minutes and the diameter of the blue wheals at the antibody injection sites were measured. The starting dilution of the serum was adjusted so that there was no response, after challenge, at the site of injection of the highest dilution and a maximum response at the two or three lowest dilutions.
Amounts of the compounds were administered to rats by subcutaneous injection, into the nucal region, of a solution of the compound in P.B.S. or as a suspension in 1% methyl cellulose, each amount to a test group of six animals at a specified time prior to intravenous challenge with ovalbumin.
For those compounds having insoluble sodium salts, the salts were isolated by reaction of the free nitro compound with 2.5N sodium hydroxide and the filtered sodium salt washed free of alkali with water. The dried salts were then administered as a suspension in 1% methyl cellulose.

[1] = 10 min, time 10 mins before challenge
[2] = 0.5 h, time 30 mins before challenge

| Compound | inhibition in vivo at 10 mg/kg [1] | inhibition in vivo at 20 mg/kg [1] | inhibition in vivo at 40 mg/kg [1] | inhibition in vivo at 5 mg/kg [1] | inhibition in vivo at 100 mg/kg [2] | other results |
| --- | --- | --- | --- | --- | --- | --- |
| O=C1C(O)=C([N+](=O)[O-])C(=O)c2ccc(-c3ccccc3)cc21 [Example 14, 2-Hydroxy-3-nitro-7-phenyl-1,4-naphthoquinone] | 20% | 12% | 23% |  |  | inhibition in vivo at 80 mg/kg (10 min, dose 80 mg/Kg, time 10 mins before challenge): 23% |
| CCOc1ccc2c(c1)C(=O)C(O)=C([N+](=O)[O-])C2=O [Example 8, 6-Ethoxy-3-hydroxy-2-nitro-1,4-naphthoquinone] | 28% | 54% | 79% | 25% |  |  |
| O=C1C([N+](=O)[O-])=C(O)C(=O)c2c(O)cccc21 [Example 3, 3,5-Dihydroxy-2-nitro-1,4-naphthoquinone] |  |  |  |  |  | inhibition in vivo at 25 mg/kg [2]: 14%; inhibition in vivo at 72 mg/kg (0.5 h, dose 72 mg/Kg, time 30 mins before challenge): 18% |
| O=C1C(O)=C([N+](=O)[O-])C(=O)c2ccc(Br)cc21 [Example 10, 6-Bromo-3-hydroxy-2-nitro-1.4-naphthoquinone] |  |  |  |  | 13% | inhibition in vivo at 100 mg/kg [1]: 5% |
| Cc1cccc2c1C(=O)C(O)=C([N+](=O)[O-])C2=O [Example 4, 3-Hydroxy-5-methyl-2-nitro-1,4-naphthoquinone] |  |  |  |  |  | inhibition in vivo at 0.5 mg/kg (10 min, dose 0.5 mg/Kg, time 10 mins before challenge): 6%; inhibition in vivo at 1 mg/kg [1]: 16%; inhibition in vivo at 2 mg/kg [1]: 16%; inhibition in vivo at 4 mg/kg [1]: 29% |
| Cc1cc2c(cc1C)C(=O)C([N+](=O)[O-])=C(O)C2=O [Example 7, 6,7-Dimethyl-2-hydroxy-3-nitro-1,4-naphthoquinone] |  |  |  |  | 27% | inhibition in vivo at 25 mg/kg [2]: 18% |
| Cc1ccc2c(c1)C(=O)C(O)=C([N+](=O)[O-])C2=O [Example 6, 3-Hydroxy-6-methyl-2-nitro-1,4-naphthoquinone] | 36% | 33% | 52% | 19% |  |  |
| O=C1C(O)=C([N+](=O)[O-])C(=O)c2ccc(F)cc21 [Example 11, 6-Fluoro-3-hydroxy-2-nitro-1,4-naphthoquinone] |  |  |  |  | 16% | inhibition in vivo at 100 mg/kg [1]: 13% |
| O=C1C(O)=C([N+](=O)[O-])C(=O)c2ccccc21 [Example 1, 2-Hydroxy-3-nitro-1,4naphthoquinone] |  |  |  |  | 30% | inhibition in vivo at 25 mg/kg [2]: 16% |
| Cc1ccc2c(c1)C(=O)C([N+](=O)[O-])=C(O)C2=O [Example 2, 2-Hydroxy-6-methyl-3-nitro-1,4-naphthoquinone] |  |  |  |  | 30% | inhibition in vivo at 25 mg/kg [2]: 33% |
| CCc1cc2c(cc1CC)C(=O)C([N+](=O)[O-])=C(O)C2=O [Example 12, 6,7-Diethyl-2-hydroxy-3-nitro-1,4-naphthoquinone] |  |  |  |  |  | inhibition in vivo at 1 mg/kg [1]: 11%; inhibition in vivo at 2 mg/kg [1]: 23%; inhibition in vivo at 4 mg/kg [1]: 26%; inhibition in vivo at 8 mg/kg (10 min, dose 8 mg/Kg, time 10 mins before challenge): 55% |
| COc1cc2c(cc1OC)C(=O)C([N+](=O)[O-])=C(O)C2=O [Example 9, 6.7-Dimethoxy-2-hydroxy-3-nitro-1,4-naphthoquinone] | 39% | 75% | 84% | 28% |  |  |
| O=C1C(O)=C([N+](=O)[O-])C(=O)c2cc3c(cc21)CCCC3 [Example 13, 2-Hydroxy-3-nitro-6,7-tetramethylene-1,4-naphtoquinone] | 80% | 87% | 90% | 72% |  |  |
| COc1ccc2c(c1)C(=O)C(O)=C([N+](=O)[O-])C2=O [Example 5, 3-Hydroxy-6-methoxy-2-nitro-1,4-naphthoquinone] | 41% | 65% | 85% | 22% |  |  |
